We go through three molecules from patent publication US7728005B2, “Ether derivative” (Ajinomoto Co., Inc., priority 2003, dated 2010).

The structures appear in SMILES notation.

The test system of one experiment is male ICR mouse. The experiment is described as follows: Acetic acid-induced writhing method. It is filed as in vivo. On the procedure:
The effect of the test compound in the writhing test method induced by acetic acid was examined using male ICR mouse (4-week-old). For intraperitoneal administration of the test compound, the test compound was dissolved in saline containing 5% DMSO and 5% Tween 80 to a suitable concentration, and administered at a dose of 5 ml/kg at 30 min before acetic acid administration. For oral administration of the test compound, the test compound was suspended in 0.5% CMC and administered at a dose of 5 ml/kg at 1 hr before acetic acid administration. Acetic acid was diluted with saline to 0.9%, intraperitoneally administered at a dose of 5 ml/kg and, starting 5 min thereafter, the number of writhing responses was counted for 15 min. Saline containing 5% DMSO and 5% Tween 80 was also intraperitoneally administered to the control group (vehicle administration group). As the standard product, indomethacin was used, which was suspended in 0.5% tragacanth gum and orally administered at 90 min before acetic acid administration. 0.5% Tragacanth gum was administered to the control group.
The number of writhing responses by each test compound is shown in FIG. 1 and the number of writhing responses by indomethacin is shown in FIG. 2.

A further experiment has as its system Male ICR mice. The experiment is described as follows: Mustard oil-induced thermal hyperalgesia model method (hot plate test). It is filed as in vivo. The following applies: 1.0 mg/kg oral, 1 hr before hot plate test; ICR mouse. The protocol: Male ICR mice (5 to 7-week-old) were used. Mustard oil 10% (diluted with distilled water) was subcutaneously injected into both hind paws, and a hot plate test was performed 30 min […] later. The animal was placed on a hot plate and the latency for nociceptive behavior was measured and used as an index. The compound was suspended in 0.5% CMC and orally administered at a dose of 5 ml/kg at 1 hr before the hot plate test. The inhibitory rate was calculated relative to the index measured before administration as 100%.

For the molecule `O=C(NCCOc1ccc(F)cc1)Nc1ccccc1Br` [Example 1, N-(2-bromophenyl)-N′-[2-(4-fluorophenoxy)ethyl]urea], in the experiment with male ICR mouse (10 mg/kg intraperitoneal, 30 min before acetic acid), the “inhibitory rate (number of writhing responses)” value came to 76%. For the molecule `COc1ccc2c(c1)c(CC(=O)O)c(C)n2C(=O)c1ccc(Cl)cc1` [indomethacin, reference compound], the “inhibitory rate (number of writhing responses)” value with male ICR mouse (30 mg/kg oral, 90 min before acetic acid) came out at 56%. Take `C[C@@H](COc1cccc(Cl)c1)NC(=O)Nc1cccc2cnccc12` [Example 38, N-[(1S)-2-(3-chlorophenoxy)-1-methylethyl]-N′-(isoquinolin-5-yl)urea]: the “inhibition rate (latency for nociceptive behavior)” value in the experiment with Male ICR mice worked out at 57%.
